Converted amounts (≈) assume the structure as drawn. Read-outs that look alike come from different tables or passages of the source. Square brackets hold non-standard residues; d marks the D form. Ends that are not written are not given here. Peptide text beside a SMILES is read from it. Trp(2,5,7-tBu3) = CC(C)(C)c1cc(C(C)(C)C)c2[nH]c(C(C)(C)C)c(C[C@H](N)C(=O)O)c2c1
How the values were obtained:
[1] = test system: human red blood cells; assay: Hemolytic activity; assay type: cell-based
Summary of the method: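 Peptides (100 μM down to 0.78 μM) were incubated with 4% final human erythrocytes in PBS for 18 h at 37 °C. Supernatant absorbance at 540 nm after centrifugation was scaled to 1% Triton X-100 (100%) and no peptide (0%); melittin served as positive control; triplicate runs.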

[2] = test system: MDR A. baumannii; assay: microbe, parasite or virus in culture; settings: for Minimum inhibitory concentrations, MDR A. baumannii: CLSI broth microdilution, CAMHB with 50 mg/L Ca2+, 10 mg/L Mg2+, 5 × 10^5 CFU/ml, 18 h 37 °C, triplicate, strain ATCC BAA-1605; for MIC in 0.2% albumin and 0.01% AcOH added CLSI standard condition, MDR A. baumannii: CAMHB plus 0.2% bovine serum albumin and 0.01% acetic acid, values marked * in Table 2
Excerpt: (§1) MDR Pseudomonas aeruginosa (CCARM 2180) was purchased from the Culture Collection of Antimicrobial Resistance Microbes (Seoul, Republic of Korea). MDR Acinetobacter baumannii (ATCC BAA-1605) and MDR Enterococcus faecalis (ATCC 51575) were purchased from the American Type Culture Collection (Manassas, VA, USA). MDR Staphylococcus aureus (KCCM 40510) was purchased from the Korean Culture Center of Microorganisms (Seoul, Republic of Korea). S. aureus (KCTC 1621) was purchased from the Korean Collection for Type Cultures. A. baumannii (KCCM 40203) was purchased from the Korean Culture Center of Microorganisms (Seoul, Republic of Korea).
(§2) To assess antimicrobial activity, the MIC50 and MIC90 were measured using broth microdilution following CLSI guidelines. […] Each experiment was performed in triplicate. Meropenem (Sigma, Darmstadt, Germany) and colistin were used as control antibiotics. Cation-adjusted Mueller–Hinton broth (CAMHB) (Becton, Dickinson and Company, Franklin Lakes, USA) with supplied calcium (50 mg/L) and magnesium (10 mg/L) was used for the CLSI-test condition. Bacteria in midlog phase and peptides were separately diluted in CAMHB. The bacteria and peptide solutions were then mixed in 96-well polyethylene plates (SPL, Gyeonggi-do, Korea) and incubated for 18 h at 37 °C. The final concentration for bacteria was 5 × 10^5 CFU/ml. […] The MIC was defined to be the lowest concentration of peptide without visible turbidity by comparing with control antibiotics with the unaided eye. […] Each experiment was performed in triplicate. MICs in albumin and acetic acid solutions were measured using the same protocol but with 0.2% bovine serum albumin (Bovogen, Keilor, Australia), 0.01% acetic acid (Merck, New Jersey, USA), and CAMHB with both calcium and magnesium. In addition, MICs used in the antibiotic resistance acquisition test, the outer–inner membrane permeation test, and the transmembrane potential test and for FE-SEM were individually determined. The final bacterial concentrations used were as follows: for resistance acquisition, optical density (OD) 0.01; for outer–inner membrane permeability assays (LB), OD 0.1; for the transmembrane potential test, 1 × 10^8 CFU/ml (OD 0.171); […]. Inhibitory activity unidentifiable by direct observation was determined by counting the CFUs. Each experiment was performed at least twice.

[3] = test system: MDR P. aeruginosa; assay: microbe, parasite or virus in culture; settings: for Minimum inhibitory concentrations, MDR P. aeruginosa: CLSI broth microdilution, CAMHB with 50 mg/L Ca2+, 10 mg/L Mg2+, 5 × 10^5 CFU/ml, 18 h 37 °C, no visible turbidity, triplicate, strain CCARM 2180; for MIC in 0.2% albumin and 0.01% AcOH added CLSI standard condition, MDR P. aeruginosa: CAMHB plus 0.2% bovine serum albumin and 0.01% acetic acid, values marked * in Table 2
Excerpt: as §1, §2

[4] = test system: MDR S. aureus; assay: microbe, parasite or virus in culture; settings: for Minimum inhibitory concentrations, MDR S. aureus: CLSI broth microdilution, CAMHB with 50 mg/L Ca2+, 10 mg/L Mg2+, 5 × 10^5 CFU/ml, 18 h 37 °C, triplicate, strain KCCM 40510; for MIC in 0.2% albumin and 0.01% AcOH added CLSI standard condition, MDR S. aureus: CAMHB plus 0.2% bovine serum albumin and 0.01% acetic acid, values marked * in Table 2
Excerpt: as §1, §2

[5] = test system: MDR E. faecalis; assay: microbe, parasite or virus in culture; settings: for Minimum inhibitory concentrations, MDR E. faecalis: CLSI broth microdilution, CAMHB with 50 mg/L Ca2+, 10 mg/L Mg2+, 5 × 10^5 CFU/ml, 18 h 37 °C, triplicate, strain ATCC 51575; for MIC in 0.2% albumin and 0.01% AcOH added CLSI standard condition, MDR E. faecalis: CAMHB plus 0.2% bovine serum albumin and 0.01% acetic acid, values marked * in Table 2
Excerpt: as §1, §2

Molecule | Hemolysis percent, 25 μM [1] | Hemolysis percent, 50 μM [1] | Hemolysis percent, 100 μM [1] | Minimum inhibitory concentrations, MDR A. baumannii [2] | Minimum inhibitory concentrations, MDR P. aeruginosa [3] | Minimum inhibitory concentrations, MDR S. aureus [4] | Minimum inhibitory concentrations, MDR E. faecalis [5] | Hemolysis percent, 25 μM ([1]; red cells of human, 18 h, 25) | Hemolysis percent, 50 μM ([1]; red cells of human, 18 h, 50) | Hemolysis percent, 100 μM ([1]; red cells of human, 18 h, 100) | MIC in 0.2% albumin and 0.01% AcOH added CLSI standard condition, MDR A. baumannii [2] | MIC in 0.2% albumin and 0.01% AcOH added CLSI standard condition, MDR P. aeruginosa [3] | MIC in 0.2% albumin and 0.01% AcOH added CLSI standard condition, MDR S. aureus [4] | MIC in 0.2% albumin and 0.01% AcOH added CLSI standard condition, MDR E. faecalis [5] | Hemolysis percent, 50 μM ([1]; red cells of human, 18 h, 50 μM) | actual MIC as weight/volume concentration ([2]; molar MIC converted with the molecular weight (melittin 2.85 kDa, WCopW5 1.47 kDa))
NH2 wF l l w i g l r k k r CONH2 [WCopW18] | 1.89% | 4.52% | 6.74% | 1.25 µM | 5 µM | 1.25 µM | 2.5 µM |  |  |  |  |  |  |  |  | 
CC[C@@H](C)[C@@H](NC(=O)[C@@H](Cc1c[nH]c2ccccc12)NC(=O)[C@@H](CC(C)C)NC(=O)[C@@H](CC(C)C)NC(=O)[C@H](N)Cc1c[nH]c2ccccc12)C(=O)NCC(=O)N[C@H](CC(C)C)C(=O)N[C@H](CCCNC(=N)N)C(=O)N[C@H](CCCCN)C(=O)N[C@H](CCCCN)C(N)=O [WCopW8] (H-[dW][dL][dL][dW][dI]G[dL][dR][dK][dK]-NH2) |  |  |  | 5 µM (≈ 6.56 µg/mL) | > 20 µM | 2.5 µM (≈ 3.28 µg/mL) | 5 µM (≈ 6.56 µg/mL) | 3.85% | 8.51% | 15.04% |  |  |  |  |  | 
CC[C@@H](C)[C@@H](NC(=O)[C@@H](Cc1c[nH]c2ccccc12)NC(=O)[C@@H](CC(C)C)NC(=O)[C@H](N)CC(C)C)C(=O)NCC(=O)N[C@H](CC(C)C)C(=O)N[C@H](CCCCN)C(=O)N[C@H](CCCCN)C(=O)N[C@H](CCCCN)C(=O)N[C@H](CCCCN)C(N)=O [WCopW14] (H-[dL][dL][dW][dI]G[dL][dK][dK][dK][dK]-NH2) |  |  |  | > 20 µM | > 20 µM | > 20 µM | > 20 µM | 0.98% | 1.06% | 1.10% |  |  |  |  |  | 
WLLLLWRRR-NH2 [AcWL-3] |  |  |  | 2.5 µM | > 20 µM | 5 µM | 5 µM | 16.44 ±0.89% | 19.80 ±0.76% | 36.71 ±3.91% | 0.63 µM | > 20 µM | 2.5 µM | 2.5 µM |  | 
WLLLLLRRR-NH2 [AcWL-1] |  |  |  | 2.5 µM | > 20 µM | 10 µM | 10 µM | 11.89 ±1.24% |  | 36.35 ±3.00% | 1.25 µM | > 20 µM | 5 µM | 5 µM | 20.52 ±1.25% | 
NH2 wM l l w i g l r k k r CONH2 [WCopW15] | 0.65% | 1.16% | 4.04% | 1.25 µM | 10 µM | 1.25 µM | 2.5 µM |  |  |  |  |  |  |  |  | 
CC[C@@H](C)[C@@H](NC(=O)[C@@H](Cc1c[nH]c2ccccc12)NC(=O)[C@@H](CC(C)C)NC(=O)[C@@H](CC(C)C)NC(=O)[C@H](N)Cc1c[nH]c2ccccc12)C(=O)NCC(=O)N[C@H](CC(C)C)C(=O)N[C@H](CCCNC(=N)N)C(=O)N[C@H](CCCCN)C(=O)N[C@H](CCCCN)C(=O)N[C@H](CCCNC(=N)N)C(N)=O [WCopW5] (H-[dW][dL][dL][dW][dI]G[dL][dR][dK][dK][dR]-NH2) |  |  |  | 1.25 µM (≈ 1.83 µg/mL) | 10 µM (≈ 14.7 µg/mL) | 1.25 µM (≈ 1.83 µg/mL) | 2.5 µM (≈ 3.67 µg/mL) | 2.99% | 7.77% | 11.60% |  |  |  |  |  | 1.84 µg/mL
CC[C@@H](C)[C@@H](NC(=O)[C@@H](Cc1c[nH]c2ccccc12)NC(=O)[C@@H](CC(C)C)NC(=O)[C@H](N)CC(C)C)C(=O)NCC(=O)N[C@H](CC(C)C)C(=O)N[C@H](CCCNC(=N)N)C(=O)N[C@H](CCCCN)C(=O)N[C@H](CCCCN)C(=O)N[C@H](CCCNC(=N)N)C(N)=O [WCopW13] (H-[dL][dL][dW][dI]G[dL][dR][dK][dK][dR]-NH2) |  |  |  | 5 µM (≈ 6.41 µg/mL) | > 20 µM | > 20 µM | > 20 µM | 1.00% | 1.13% | 1.21% |  |  |  |  |  | 
CC[C@@H](C)[C@@H](NC(=O)[C@@H](Cc1c[nH]c2ccccc12)NC(=O)[C@@H](CC(C)C)NC(=O)[C@@H](CC(C)C)NC(=O)[C@@H](Cc1c[nH]c2ccccc12)NC(=O)[C@@H](N)CO)C(=O)NCC(=O)N[C@H](CC(C)C)C(=O)N[C@H](CCCNC(=N)N)C(=O)N[C@H](CCCCN)C(=O)N[C@H](CCCCN)C(=O)N[C@H](CCCNC(=N)N)C(N)=O [WCopW19] (H-S[dW][dL][dL][dW][dI]G[dL][dR][dK][dK][dR]-NH2) |  |  |  | 2.5 µM (≈ 3.89 µg/mL) | 10 µM (≈ 15.5 µg/mL) | 2.5 µM (≈ 3.89 µg/mL) | 2.5 µM (≈ 3.89 µg/mL) | 4.32% | 7.26% | 10.57% |  |  |  |  |  | 
CC[C@@H](C)[C@@H](NC(=O)[C@@H](Cc1c[nH]c2ccccc12)NC(=O)[C@@H](C)NC(=O)[C@@H](C)NC(=O)[C@H](N)Cc1c[nH]c2ccccc12)C(=O)NCC(=O)N[C@H](CC(C)C)C(=O)N[C@H](CCCNC(=N)N)C(=O)N[C@H](CCCCN)C(=O)N[C@H](CCCCN)C(=O)N[C@H](CCCNC(=N)N)C(N)=O [WCopW20] (H-[dW][dA][dA][dW][dI]G[dL][dR][dK][dK][dR]-NH2) |  |  |  | 2.5 µM (≈ 3.46 µg/mL) | > 20 µM | > 20 µM | > 20 µM | 0.11% | 0.13% | 0.45% |  |  |  |  |  | 
CC[C@H](C)[C@H](NC(=O)[C@H](Cc1c[nH]c2ccccc12)NC(=O)[C@H](CC(C)C)NC(=O)[C@H](CC(C)C)NC(=O)[C@@H](N)Cc1c(C(C)(C)C)[nH]c2c(C(C)(C)C)cc(C(C)(C)C)cc12)C(=O)N[C@@H](C)C(=O)N[C@@H](CC(C)C)C(=O)N[C@@H](CCCNC(=N)N)C(=O)N[C@@H](CCCCN)C(=O)N[C@@H](CCCCN)C(N)=O [WtCopW] (H-[Trp(2,5,7-tBu3)]LLWIALRKK-NH2) |  |  |  | 10 µM (≈ 14.9 µg/mL) | > 20 µM | 5 µM (≈ 7.47 µg/mL) | 20 µM (≈ 29.9 µg/mL) |  |  |  |  |  |  |  |  | 

— publication PMC9643456, “Matching amino acids membrane preference profile to improve activity of antimicrobial peptides” (Communications Biology, 2022)
